Results reported in ChEMBL document CHEMBL1142306, “Biflavonoids isolated from Selaginella tamariscina regulate the expression of matrix metalloproteinase in human skin fibroblasts” (Bioorg Med Chem, 2008).
The source made the active and inactive calls. The calls are words filed in the database; no cut-off is given here.

What was measured:
[1] = target: 72 kDa type IV collagenase (Homo sapiens) (UniProt P08253); experiment: Inhibition of MMP2 in UVB irradiated human dermal fibroblasts at <5 uM by zymography
Sequence of 72 kDa type IV collagenase (Homo sapiens) (P08253 110-660 limits assumed): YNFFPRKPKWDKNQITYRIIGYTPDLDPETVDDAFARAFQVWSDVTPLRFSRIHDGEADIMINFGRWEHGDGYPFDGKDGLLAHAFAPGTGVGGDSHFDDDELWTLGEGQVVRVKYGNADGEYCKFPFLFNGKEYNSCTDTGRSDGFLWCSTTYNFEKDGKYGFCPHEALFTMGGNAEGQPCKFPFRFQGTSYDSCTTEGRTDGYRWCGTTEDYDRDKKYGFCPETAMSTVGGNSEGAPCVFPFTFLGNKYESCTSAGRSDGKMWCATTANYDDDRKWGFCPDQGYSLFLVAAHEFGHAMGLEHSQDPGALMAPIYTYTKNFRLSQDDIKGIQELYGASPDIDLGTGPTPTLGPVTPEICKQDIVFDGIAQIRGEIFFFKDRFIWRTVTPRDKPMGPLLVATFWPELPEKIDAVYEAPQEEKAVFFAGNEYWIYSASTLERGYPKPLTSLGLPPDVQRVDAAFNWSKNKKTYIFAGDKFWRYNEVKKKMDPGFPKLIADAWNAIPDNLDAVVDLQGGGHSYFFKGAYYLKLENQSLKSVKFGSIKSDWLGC

Fibroblast [2] = experiment: Growth inhibition of UVB irradiated human dermal fibroblasts at 5 uM; format: functional, cell-based
Fibroblast [3] = experiment: Inhibition of UVB irradiation-induced MMP1 production in human dermal fibroblasts at 5 uM after 48 hrs; format: functional, cell-based
Fibroblast [4] = experiment: Decrease in cell viability of UVB irradiated human dermal fibroblasts at 5 uM; format: functional
Fibroblast [5] = experiment: Decrease in protein content in UVB irradiated human dermal fibroblasts at 5 uM relative to control; format: functional; design: scale not given: the % may be the effect or the level left
Fibroblast [6] = experiment: Inhibition of UVB irradiation-induced MMP1 production in human dermal fibroblasts at 1.25 uM after 48 hrs; format: functional, cell-based
Fibroblast [7] = experiment: Inhibition of UVB irradiation-induced MMP1 production in human dermal fibroblasts at 2.5 uM after 48 hrs; format: functional, cell-based
Fibroblast [8] = experiment: Inhibition of UVB irradiation-induced MMP1 production in human dermal fibroblasts after 48 hrs; format: functional, cell-based; settings: for IC50: light or radiation study
Fibroblast [9] = experiment: Inhibition of UVB irradiation-induced MMP1 production in human dermal fibroblasts at 20 uM after 48 hrs; format: functional, cell-based
Fibroblast [10] = experiment: Decrease in protein content in UVB irradiated human dermal fibroblasts at 20 uM relative to control; format: functional; design: scale not given: the % may be the effect or the level left
Fibroblast [11] = experiment: Decrease in cell viability of UVB irradiated human dermal fibroblasts at 20 uM; format: functional
Fibroblast [12] = experiment: Inhibition of UVB irradiation-induced MMP1 production in human dermal fibroblasts at 10 uM after 48 hrs; format: functional, cell-based
Fibroblast [13] = experiment: Growth inhibition of UVB irradiated human dermal fibroblasts at 20 uM; format: functional, cell-based

Compound	Activity [1]	Activity (Fibroblast [2])	Activity (Fibroblast [3])	Activity (Fibroblast [4])	Activity (Fibroblast [5])	Activity (Fibroblast [6])	Activity (Fibroblast [7])	Activity (Fibroblast [8])	IC50 (Fibroblast [8])	Activity (Fibroblast [9])	Activity (Fibroblast [10])	Activity (Fibroblast [11])	Activity (Fibroblast [12])	Activity (Fibroblast [13])
O=c1cc(-c2ccc(O)cc2-c2c(O)cc(O)c3c(=O)cc(-c4ccc(O)cc4)oc23)oc2cc(O)cc(O)c12	inactive	Active	Active	50%	50%	inactive	inactive							
O=c1cc(-c2ccc(O)c(-c3c(O)cc4oc(-c5ccc(O)cc5)cc(=O)c4c3O)c2)oc2cc(O)cc(O)c12	inactive		inactive			inactive	inactive							
O=c1cc(-c2ccc(O)c(-c3c(O)cc(O)c4c(=O)cc(-c5ccc(O)cc5)oc34)c2)oc2cc(O)cc(O)c12 [AMENTOFLAVONE]	inactive		Active					Dose-dependent effect	1800 nM					
O=c1cc(-c2ccc(O)c(-c3c(O)c(O)c(O)c4c(=O)cc(-c5ccc(O)cc5)oc34)c2)oc2cc(O)cc(O)c12 [SUMAFLAVONE]	inactive	Active	Active	50%	50%			Dose-dependent effect	780 nM					
O=c1cc(-c2ccc(O)c(-c3c(-c4ccc(O)cc4)oc4cc(O)cc(O)c4c3=O)c2)oc2cc(O)cc(O)c12 [TAIWANIAFLAVONE]	inactive		inactive							Active	50%	50%	inactive	Active
CC1=C(/C=C/C(C)=C/C=C/C(C)=C/C(=O)O)C(C)(C)CCC1 [TRETINOIN]									10000 nM					
